Measured values taken from PubChem BioAssay (NCI).
Values joined by “and” are separate entries in the source; they are usually repeats but may differ in a detail not shown here. Equal entries are not always repeated.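 Results reflect a 48-hour exposure of cells in 96-well plates to compound at five concentrations. At the GI50, growth is halved. TGI is the concentration that stops growth completely.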

Key:
Experiment in all cases: NCI-60 cell line screen, 48 h
UO-31 renal = test system: UO-31 renal
PC-3 prostate = test system: PC-3 prostate
NCI/ADR-RES ovarian = test system: NCI/ADR-RES ovarian
SK-MEL-28 melanoma = test system: SK-MEL-28 melanoma
DU-145 prostate = test system: DU-145 prostate
U251 CNS = test system: U251 CNS
NCI-H226 lung = test system: NCI-H226 lung
M14 melanoma = test system: M14 melanoma
SF-295 CNS = test system: SF-295 CNS
SK-MEL-2 melanoma = test system: SK-MEL-2 melanoma

Compound | GI50 (UO-31 renal) | TGI (UO-31 renal) | GI50 (PC-3 prostate) [µM] | TGI (PC-3 prostate) [µM] | GI50 (NCI/ADR-RES ovarian) [µM] | TGI (NCI/ADR-RES ovarian) | GI50 (SK-MEL-28 melanoma) | TGI (SK-MEL-28 melanoma) | GI50 (DU-145 prostate) [µM] | TGI (DU-145 prostate) [µM] | GI50 (U251 CNS) [µM] | TGI (U251 CNS) | GI50 (NCI-H226 lung) | TGI (NCI-H226 lung) | GI50 (M14 melanoma) | TGI (M14 melanoma) | GI50 (SF-295 CNS) [µM] | TGI (SF-295 CNS) | GI50 (SK-MEL-2 melanoma) | TGI (SK-MEL-2 melanoma)
CC1(C)CCC[C@]2(C)c3cc(O)ccc3CC[C@@H]12 | 19.9 µM | 40.2 µM | 15.8 | 30.2 | 16.5 | 32.5 µM | 19.6 µM | 37 µM | 16.4 | 30.6 | 14.6 | 29.1 µM | 18.2 µM | 35.4 µM | 28.2 µM | > 100 µM | 20.6 | 44.6 µM | 20.1 µM | 43 µM
O=c1oc(-c2ccccc2)cc2cccc(O)c12 | 72 µM | > 100 µM | 40.6 | > 100 | 33.3 | > 74.3 µM | > 100 µM | > 100 µM | > 48.7 | > 100 | 18 | 35.1 µM | 19.4 µM | 51 µM | > 80.9 µM | > 100 µM | 28.3 | > 83.9 µM | > 100 µM | > 100 µM
N#Cc1ccc(C2C3=C(CCCC3=O)OC3=C2C(=O)c2ccccc2C3=O)cc1 (configuration not stated) | 1.67 µM | 3.14 µM | 2.17 | 12.2 | 0.899 | 7.81 µM | 1.82 µM | 3.3 µM | 1.67 | 3.07 | 1.7 | 3.16 µM | 2.02 µM | 4.62 µM | 1.71 µM | 3.37 µM | 1.83 | 3.9 µM | 1.35 µM | 3.33 µM
CCOC(=O)NC1=C(N2CC2)C(=O)C(NC(=O)OCC)=C(N2CC2)C1=O | 11.1 µM and 4 µM | 25 µM and 21.7 µM and 22.4 µM |  | 16.2 | 8.44 | 25 µM and 16.8 µM | 22.3 µM and 16.6 µM | 25 µM and 42.4 µM and 54.4 µM |  | 25 | 3.91 | 20 µM and 10.8 µM and 9.77 µM | 18 µM and 11 µM | 25 µM and 20 µM and 43 µM | 4.91 µM and 4.5 µM | 25 µM and 23.7 µM and 31.7 µM | 1.86 | 25 µM and 23.3 µM and 31.4 µM | 5.09 µM and 7.71 µM | 15.2 µM and 14.4 µM and 16.1 µM
Oc1ccc2ccccc2c1C1NN=C(c2ccccc2)S1 (configuration not stated) | 0.409 µM | > 20.4 µM | 0.645 | > 100 | 0.383 | 62.8 µM | 0.799 µM | 97.8 µM | 0.479 | 37.2 | 0.461 | 48.5 µM | 0.647 µM | 14.2 µM | 0.279 µM | 0.819 µM | 0.475 | 62.2 µM | 0.41 µM | 14.9 µM
COc1ccc(-c2cn(-c3cccc(C(=O)/C=C/c4ccc(O)c(OC)c4)c3)c(=O)[nH]2)cc1 | 3.64 µM | 40.3 µM | 2.91 | 14.2 | 2.97 | > 31.4 µM | 1.99 µM | 4.51 µM | 3.02 | 9.27 | 2.86 | 15.3 µM | 5.25 µM | > 59.5 µM | 4.48 µM | 40.5 µM | 11.2 | > 85.4 µM | 4.72 µM | > 58.1 µM
CC(C)[NH-].CC(C)[NH-].O.O.[Cl][Pt+2][Cl] | 147 µM | 356 µM | 90.8 | 298 | 60.9 | 343 µM | 46.8 µM | 197 µM | 38.7 | 332 | 27.3 | 107 µM | 66 µM | 259 µM | 37.5 µM | 139 µM | 42.9 | 149 µM | 19 µM | 91.6 µM
COc1ccc2nc3cc([N+](=O)[O-])ccc3c(NCCCN(CCO)CCO)c2c1 | 8.56 µM | 22.6 µM |  | 20.1 | 15.9 | 39.9 µM | 3.93 µM | 13 µM | 12.6 | 43.4 | 3.57 | 13.4 µM | 8.1 µM | 21.5 µM | 2.36 µM | 5.18 µM | 9 | 22.3 µM | 1.49 µM | 3.2 µM
O=C(NCCCCCCNC(=O)n1cc(F)c(=O)[nH]c1=O)NCCCOCCOCCOCCOCCOCCOCCOCCOCCOCCOCCOCCOCCOCCOCCOCCOCCOCCOCCOCCOCCOCCCNC(=O)C(O)C(O)C(OC1OC(CO)C(O)C(O)C1O)C(O)CO (configuration not stated) |  | > 100 µM |  | > 100 |  | > 100 µM |  | > 100 µM |  | > 100 |  | > 100 µM |  | > 100 µM |  | > 100 µM |  | > 100 µM |  | > 100 µM
